Common to all, as to assay type: cell-based
Assay [1] has as its system NCI-H929 cells. The experiment in a line: Antiproliferative effect alone and in combination with dexamethasone against NCI-H929 cells. As to conditions: 72 h, read-out: IC50. As to the method:
(§1) MOLM-13 cells in the logarithmic growth phase were diluted in a medium RPMI+[…], and NCI-H929 cells were diluted in a medium RPMI+10% FBS. The cells were plated at 4,000 cells/well in 96-well whole black plates (WHB) with 50 μL/well. After plating, the plates were incubated in an incubator at 5% CO2 and 37° C. for 24 h before the compounds were added. The compounds were prepared into a 10 mM stock solution in DMSO and diluted in a culture medium to the desired concentrations (a final DMSO concentration of 0.2%). 50 μL of the compound dilutions at final concentrations of 10,000, 3,333.33, 1,111.11, 370.37, 123.46, 41.15, 13.72, 4.57, 1.52, and 0 nM were added to the 96-well plates containing the cells, that is, each compound was serially diluted to 10 concentrations in duplicate. The plates were incubated at 5% CO2 and 37° C. for 72 h. When pharmaceutical partners were used, the concentrations of azacitidine and dexamethasone were kept at 200 nM and 500 nM respectively, and the compounds were serially three-fold diluted from 10,000 nM. After the incubation was complete, the plates were equilibrated at room temperature for 30 min. CellTiter-Glo® Reagent (Promega G7573) was added at 100 μL/well. The plates were shaken for 12 min on a microplate shaker. The luminescence value was measured at room temperature by the GloMax navigator (Promega GM2010). The IC50 values were calculated using the GraphPad Prism 7 software with the 0 nM control group as 0% inhibition.

Another assay deals with MV-4-11 cells. Briefly: Antiproliferative activity against MV-4-11 cells (CellTiter-Glo, 72 h). The following applies: Homo sapiens, MV4-11; MV-4-11 cells, 72 h; read-out: Antiproliferative activity IC50. The essentials: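 MV-4-11 cells in RPMI + 10% FBS plated at 5,000 cells/well and pre-incubated 24 h at 37 °C, 5% CO2. Compounds were then added (final DMSO 0.2%) and cells incubated 72 h. Viability was read by CellTiter-Glo luminescence after 30 min equilibration at room temperature.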
In general terms: In ATP-based viability assays light output follows the ATP content of the culture.

For assay [2], the system named is NCI-H929 cells. The experiment in a line: Antiproliferative activity against various tumor cells: NCI-H929. As to conditions: Homo sapiens; NCI-H929 cells, 72 h; read-out: Antiproliferative activity IC50 NCI-H929. The procedure:
(§2) U937, NCI-H929, AML-2, and MOLM-13 cells in the logarithmic growth phase were diluted in media RPMI+10% FBS, RPMI+10% FBS, MEMα+20% FBS, RPMI+20% FBS, respectively, and plated at 4,000 cells/well in 96-well whole black plates (WHB) with 50 μL/well. After plating, the plates were incubated in an incubator at 5% CO2 and 37° C. for 24 h before the compounds were added. The compounds were prepared into a 10 mM stock solution in DMSO and diluted in a culture medium to the desired concentrations (a final DMSO concentration of 0.2%). […] The plates were incubated at 5% CO2 and 37° C. for 72 h. After the incubation was complete, the plates were equilibrated at room temperature for 30 min. CellTiter-Glo® Reagent (Promega G7573) was added at 100 μL/well. The plates were shaken for 12 min on a microplate shaker. The luminescence value was measured at room temperature by the GloMax navigator (Promega GM2010).

The subject of a further assay is U937 cells. The experiment in a line: Antiproliferative activity against various tumor cells: U937. As to conditions: Homo sapiens, U-937; U937 cells, 72 h; read-out: Antiproliferative activity IC50 U937. The procedure:
as §2

Assay [3] deals with MOLM-13 cells. The experiment in a line: Antiproliferative activity against various tumor cells: MOLM-13. As to conditions: Homo sapiens; MOLM-13 cells, 72 h; read-out: Antiproliferative activity IC50 MOLM-13. The procedure:
as §2

The next assay concerns AML-2 cells. The experiment in a line: Antiproliferative activity against various tumor cells: AML-2. The following applies: AML-2 cells, 72 h; read-out: Antiproliferative activity IC50 AML-2. As to the method:
as §2

A further assay addresses T1, GSPT1 protein (Homo sapiens, UniProt P15170).
T1 construct: The whole cell lysate was prepared using a RIPA lysis buffer; endogenous in cells; host or cells: NB-4 cells
The experiment in a line: Degradation of GSPT1 protein in NB-4 cells (Western blot). As to conditions: NB-4 cells, compound 1 μM, 6 h; read-out: GSPT1 degradation. The procedure, abridged: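 GSPT1 levels were read by Western blot (4-20% SDS-PAGE, PVDF, overnight primary antibody at 4 °C) on lysates of NB-4 cells.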

Assay [4] has as its system MOLM-13 cells. Briefly: Antiproliferative effect alone and in combination with azacitidine against MOLM-13 cells. As to the method: as §1
A further assay concerns the target T2, CK1α (Homo sapiens, UniProt P48729).
T2 construct: The whole cell lysate was prepared using a RIPA lysis buffer; endogenous in cells; host or cells: HL-60 cells
Briefly: Degradation of CK1α protein in HL-60 cells (Western blot). As to conditions: 4 h. As to the method: (§3) […] of DMSO and the compounds were added, and the mixture was incubated in an incubator at 5% CO2 and 37° C. for 4 h. The cells were centrifuged, and the culture medium was discarded. PBS was added for washing and then discarded. The whole cell lysate was prepared using a RIPA lysis buffer containing a protease inhibitor cocktail and a phosphatase inhibitor, and incubated on ice for 30 min. The mixture was centrifuged, and the cell debris was discarded. The whole cell lysate supernatant was collected and transferred to a fresh EP tube. Samples were prepared using a loading buffer after a BCA protein assay. The samples were incubated in a metal bath at 100° C. for 10 min. The samples were electrophoretically separated from proteins on a 4-20% precast gel (SDS-PAGE gel), transferred to a PVDF membrane, blocked with 5% NFDM/TBST for 1 h at room temperature, co-incubated overnight at 4° C. with the primary antibody, and co-incubated for 2 h at room temperature with the secondary antibody on the next day. The signals were detected on the […]™ imaging system.
(In general: A western blot detects proteins with antibodies after separation by electrophoresis.)

Another assay has as its target T3, c-Myc (Homo sapiens, UniProt P01106).
T3 construct: The whole cell lysate was prepared using a RIPA lysis buffer; endogenous in cells; host or cells: HL-60 cells
Briefly: Degradation of c-MYC protein in HL-60 cells (Western blot). As to conditions: 4 h. The procedure: as §3

The mark [5] stands for this setting: in combination with 500 nM dexamethasone.

Consider 13 molecules from patent publication US20250282746A1, “HALOGEN-SUBSTITUTED ISOINDOLINE COMPOUND AND USE THEREOF” (CHENGDU FENDI PHARMACEUTICAL CO., LTD., priority 2022, published 2025).

The structures appear in SMILES notation.

T2 sequence (P48729 whole entry): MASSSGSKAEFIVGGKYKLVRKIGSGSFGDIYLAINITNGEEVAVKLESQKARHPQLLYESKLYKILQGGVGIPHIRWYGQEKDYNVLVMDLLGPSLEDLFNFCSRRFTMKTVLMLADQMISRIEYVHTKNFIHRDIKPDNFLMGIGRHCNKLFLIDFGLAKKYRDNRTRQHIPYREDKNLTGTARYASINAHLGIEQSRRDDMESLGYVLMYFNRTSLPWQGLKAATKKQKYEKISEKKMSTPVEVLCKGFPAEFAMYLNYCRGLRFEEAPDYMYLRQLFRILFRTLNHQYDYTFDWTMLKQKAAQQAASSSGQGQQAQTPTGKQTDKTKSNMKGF
T3 sequence (P01106 whole entry): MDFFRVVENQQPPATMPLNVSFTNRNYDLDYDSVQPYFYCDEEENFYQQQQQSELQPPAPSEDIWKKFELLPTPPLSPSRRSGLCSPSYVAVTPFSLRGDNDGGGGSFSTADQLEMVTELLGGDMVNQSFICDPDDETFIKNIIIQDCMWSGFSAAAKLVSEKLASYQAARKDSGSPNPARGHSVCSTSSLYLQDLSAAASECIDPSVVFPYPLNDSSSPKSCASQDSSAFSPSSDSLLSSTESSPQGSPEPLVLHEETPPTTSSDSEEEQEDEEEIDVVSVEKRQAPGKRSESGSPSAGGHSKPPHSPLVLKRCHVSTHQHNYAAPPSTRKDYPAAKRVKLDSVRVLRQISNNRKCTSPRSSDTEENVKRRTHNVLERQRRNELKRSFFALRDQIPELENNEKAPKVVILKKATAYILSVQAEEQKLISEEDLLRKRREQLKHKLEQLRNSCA
T1 sequence (P15170 whole entry): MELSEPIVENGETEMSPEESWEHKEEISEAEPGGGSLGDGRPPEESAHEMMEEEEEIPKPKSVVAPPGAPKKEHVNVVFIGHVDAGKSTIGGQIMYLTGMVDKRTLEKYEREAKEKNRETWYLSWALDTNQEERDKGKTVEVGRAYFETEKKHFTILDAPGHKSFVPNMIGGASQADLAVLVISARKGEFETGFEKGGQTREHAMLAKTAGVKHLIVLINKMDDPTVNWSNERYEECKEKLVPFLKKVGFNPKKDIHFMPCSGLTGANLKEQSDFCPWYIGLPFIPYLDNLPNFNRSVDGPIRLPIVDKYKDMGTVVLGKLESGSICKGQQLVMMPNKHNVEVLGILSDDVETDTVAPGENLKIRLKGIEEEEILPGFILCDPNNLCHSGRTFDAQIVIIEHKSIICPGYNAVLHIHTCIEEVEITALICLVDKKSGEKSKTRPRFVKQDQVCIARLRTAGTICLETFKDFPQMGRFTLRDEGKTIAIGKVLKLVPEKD

As for `Nc1cccc2c1C(=O)N(C1CCC(=O)NC1=O)C2=O` (stereo not drawn) [Pomalidomide], the concentration for half-maximal inhibition (IC50) in the assay with NCI-H929 cells [1] (setting [5]) came to 22.2 nM; in the assay on NCI-H929 cells [1] (Homo sapiens, compound alone), 243 nM.
For the molecule `Nc1cccc2c1CN(C1CCC(=O)NC1=O)C2=O` (stereo not drawn) [Lenalidomide], the half-maximal inhibitory concentration (IC50) with NCI-H929 cells [1] (setting [5]) was determined as 774 nM; with NCI-H929 cells [1] (Homo sapiens, compound alone) it was 2180 nM.
In the case of `O=C1CCC(N2Cc3c(ccc(CNC(=O)C4CC5(CCC5)C4)c3F)C2=O)C(=O)N1` (stereo not drawn) [FDAB-156], the IC50 in the assay on MV-4-11 cells lay within 1 to 10 nM; in the assay with NCI-H929 cells [2] it was 1 to 10 nM; in the assay on U937 cells it was 1 to 10 nM; in the assay on MOLM-13 cells [3], 10 to 100 nM; in the assay with AML-2 cells, 10 to 100 nM. Moreover, the inhibition at 1 µM at GSPT1 protein was above 80%.
Take `C[C@@H]1C[C@H]2[C@@H]3CCC4=CC(=O)C=C[C@]4(C)[C@@]3(F)[C@@H](O)C[C@]2(C)[C@@]1(O)C(=O)CO` [Dexamethasone]: in the assay on NCI-H929 cells [1] (Homo sapiens, compound alone), the half-inhibitory concentration (IC50) was above 10000 nM.
On to `O=C(/C=C/c1ccc(Cl)cc1)NCc1ccc2c(c1F)CN(C1CCC(=O)NC1=O)C2=O` (stereo not drawn) [FDAB-142], for which the IC50 in the assay on MV-4-11 cells was below 1 nM; with NCI-H929 cells [2], below 1 nM; with U937 cells it was 1 to 10 nM; with MOLM-13 cells [3] it was below 1 nM; in the assay with AML-2 cells it was 1 to 10 nM. For the same molecule, the inhibition at 1 µM on GSPT1 protein was above 80%.
In the case of `Nc1ncn([C@@H]2O[C@H](CO)[C@@H](O)[C@H]2O)c(=O)n1` [Azacitidine, reference compound], the “antiproliferative activity against MOLM-13 cells at fixed concentration” value in the assay with MOLM-13 cells [4] (200 nM) was “no significant antiproliferative activity”. Also, the IC50 in the assay with MOLM-13 cells [4] (Homo sapiens, MOLM-13 cells, 72 h, compound alone) stood at 751 nM.
As for `O=C(CCc1cccc(F)c1)NCc1ccc2c(c1F)CN(C1CCC(=O)NC1=O)C2=O` (stereo not drawn) [FDAB-137], the concentration for half-maximal inhibition (IC50) with MV-4-11 cells, in the assay on NCI-H929 cells [2], in the assay with U937 cells, in the assay with MOLM-13 cells [3] and with AML-2 cells was 1 to 10 nM in each case. Also, the inhibition at 1 µM on GSPT1 protein was above 80%.
`O=C(C#Cc1ccc(-c2ccccc2)cc1)NCc1ccc2c(c1F)CN(C1CCC(=O)NC1=O)C2=O` (stereo not drawn) [FDAB-147]: the IC50 in the assay with MV-4-11 cells, with NCI-H929 cells [2], with U937 cells, with MOLM-13 cells [3] and with AML-2 cells was below 1 nM each time. In addition, the inhibition at 1 µM at GSPT1 protein was above 80%.
In the case of `O=C1CCC(N2Cc3c(ccc(CNC(=O)c4ccc(C(=O)c5ccccc5)cc4)c3F)C2=O)C(=O)N1` (stereo not drawn) [FDAB-100], the IC50 with MV-4-11 cells is below 1 nM; in the assay on NCI-H929 cells [2] it was below 1 nM; in the assay on U937 cells, below 1 nM; with MOLM-13 cells [3] it was below 1 nM; in the assay on AML-2 cells it was 1 to 10 nM. The inhibition at 1 µM at GSPT1 protein is above 80%.
Consider `O=C1CCC(N2Cc3c(ccc(CNC(=O)C(F)(F)c4ccc(Cl)cc4)c3F)C2=O)C(=O)N1` (stereo not drawn) [FDAB-124], for which the 50% inhibitory concentration (IC50) is 10 to 100 nM in the assay on MV-4-11 cells; 100 to 1000 nM in the assay with NCI-H929 cells [2]; 10 to 100 nM in the assay with U937 cells; 10 to 100 nM with MOLM-13 cells [3]; 10 to 100 nM in the assay with AML-2 cells. Further, the inhibition at 1 µM on GSPT1 protein was above 80%.
For the molecule `CC(C)(C)c1ccc(C(=O)NCc2ccc3c(c2F)CN(C2CCC(=O)NC2=O)C3=O)cc1` (stereo not drawn) [FDAB-94], the IC50 was below 1 nM with MV-4-11 cells; 1 to 10 nM with NCI-H929 cells [2]; below 1 nM with U937 cells; below 1 nM with MOLM-13 cells [3]; below 1 nM in the assay on AML-2 cells. The inhibition at 1 µM on GSPT1 protein is above 80%.
On to `CCCCCCCCCCCCSC(=S)SC(C)(C#N)CCC(=O)NCc1ccc2c(c1F)CN(C1CCC(=O)NC1=O)C2=O` (stereo not drawn) [FDAB-164], for which the 50% inhibitory concentration (IC50) in the assay on MV-4-11 cells is below 1 nM. Also, the inhibition at 1 µM on GSPT1 protein was above 80%. Moreover, the CK1α degradation result on CK1α (10 nM) is reported as “D (D denotes a percentage of degradation less than 25%)”; on CK1α (100 nM), “C (C denotes a percentage of degradation less than 500% but not less than 250%)”; on CK1α (1000 nM) it was “C (C denotes a percentage of degradation less than 500% but not less than 250%)”. The c-Myc degradation entry on c-Myc (10 nM) is reported as “D (D denotes a percentage of degradation less than 25%)”; on c-Myc (100 nM), “C (C denotes a percentage of degradation less than 500% but not less than 250%)”; on c-Myc (1000 nM) it was “C (C denotes a percentage of degradation less than 500% but not less than 250%)”.
Regarding `O=C1CCC(N2Cc3c(ccc(CNC(=O)c4cc5cc(Cl)ccc5o4)c3Cl)C2=O)C(=O)N1` (stereo not drawn) [FDAB-68], the IC50 lay within 1 to 10 nM with MV-4-11 cells; 1 to 10 nM with NCI-H929 cells [2]; 10 to 100 nM in the assay on U937 cells; 10 to 100 nM with MOLM-13 cells [3]; 10 to 100 nM in the assay with AML-2 cells. On GSPT1 protein, the inhibition at 1 µM was in the range of 50 to 80%.

By IC50 is commonly meant the concentration that inhibits the measured activity by half.
